Tests used:
[1] = Inhibition of formation of calcium phosphate precipitate (solubilized calcium); format: physicochemical; conditions: calcium chloride solution with saccharide mixed with phosphate solution pH 6.8, 37° C., three hours, supernatant, n=3
Experimental: When phosphate ion is added to a calcium chloride aqueous solution, calcium phosphate, an insoluble salt, is formed from calcium ion and phosphate ion and then precipitated. Effects of α-maltosyl α,α-trehalose and other saccharides on the phenomenon were investigated as follows. A calcium chloride aqueous solution was prepared by the steps of adding 3.68 grams of calcium chloride dihydrate to deionized water to dissolve therein and adding deionized water to the solution to give a total volume of 200 ml. α-Maltosyl α,α-trehalose, prepared by the method in Experiment 1, maltotetraose, and anhydrous crystalline sucrose were used as saccharides for the test. […]
Twenty-six grams, d.s.b., of either of the saccharides for the test were added to five milliliters of the above calcium chloride solution and dissolved by adding additional deionized water. […] The calcium concentration (the solubilized calcium concentration) of each supernatant was measured using “ZEEMAN 5100”, an atomic adsorption-photometer commercialized by Perkin-Elmar Japan Co. Ltd., Kanagawa, Japan. […]
The above procedure was carried out for individual each sample (three kinds of saccharides and control) for three times and the average value of the solubilized calcium concentration was calculated.

[2] = Hygroscopicity (deliquescence) test at relative humidity 52.8%; format: physicochemical
Experimental: In order to compare the hygroscopicity (deliquescent property) of an associated complex of α-maltosyl α,α-trehalose and calcium chloride with that of a control, calcium chloride which is known to have a high deliquescent property, the following hygroscopicity test was carried out. The crystalline associated complexes of α-maltosyl α,α-trehalose and calcium chloride, prepared according to the method in Experiment 2-1 and calcium chloride dehydrate, were used as test samples. The moisture content (weight of moisture per one gram of the sample) of each sample was measured by conventional drying loss method. […] The amount of moisture per one gram of each sample after 1 to 7 days preservation was calculated based on the assumption that the increased amount measured to that of 0 day preservation was the amount of moisture absorbed by each sample.

[3] = Inhibition of deterioration (browning) of L-ascorbic acid in the presence of metal ion; format: physicochemical; conditions: 50° C., sealed vial
Experimental: L-Ascorbic acid deteriorates rapidly by the oxidative degradation in the presence of iron and copper ions and causes browning. The effects of α-maltosyl α,α-trehalose on the phenomenon were investigated as follows. Five kinds of aqueous solutions, having respective compositions described in Table 8, were prepared. Aqueous solutions of L-ascorbic acid alone or L-ascorbic acid and metal ion compounds were used as controls. The test solutions were prepared by adding α-maltosyl α,α-trehalose to the control solutions. Ten milliliters of each of these test and control solutions were placed in different 20 ml-vials and sealed. The vials were preserved at 50° C. […] After the preservation, the degree of coloring of each solution was measured. In the case of the control solutions containing L-ascorbic acid alone, the degrees of coloring were measured at the preservation periods of 40 hours and 96 hours. The absorbance at 420 nm (within the visible light range) of each sample was measured for the degree of coloring.

[4] = Experimental: The changes of solubility in water of metal ion compounds were examined under coexistence of α-maltosyl α,α-trehalose and metal ion compounds. α-Maltosyl α,α-trehalose prepared by the method in Experiment 1 was used for the tests. […] Solutions prepared by dissolving the same amount of metal ion compounds only were prepared as controls. After dissolving the contents completely, all the beakers were allowed to stand at room temperature (25° C.) for 24 hours. Successively, precipitation of crystals was judged by macroscopic observation. In the case of precipitating crystals, the formed crystals were collected and analyzed for components by the conventional method.

Compound: OC[C@H]1O[C@H](O[C@H]2[C@H](O)[C@@H](O)[C@@H](O[C@H]3[C@H](O)[C@@H](O)[C@@H](O[C@H]4[C@H](O)[C@@H](O)C(O)O[C@@H]4CO)O[C@@H]3CO)O[C@@H]2CO)[C@H](O)[C@@H](O)[C@@H]1O (stereo partly shown) [Maltotetraose, maltotetraose]
- Concentration of solubilized calcium (average ± standard deviation) [1]: 6910 ± 830 ng/mL

Compound: O.O.[Ca+2].[Cl-].[Cl-] [CaCl2•2H2O, calcium chloride dihydrate]
- Moisture content/g-sample, 1 day ([2]; 25° C., relative humidity 52.8%, 1 day): 0.319 g
- Moisture content/g-sample, 2 days ([2]; 25° C., relative humidity 52.8%, 2 days): 0.359 g
- Moisture content/g-sample, 3 days ([2]; 25° C., relative humidity 52.8%, 3 days): 0.405 g
- Moisture content/g-sample, 7 days ([2]; 25° C., relative humidity 52.8%, 7 days): 0.430 g
- Moisture content/g-sample, 0 day ([2]; before preservation, drying loss method): 0.245 g

Compound: O=C1O[C@H]([C@@H](O)CO)C(O)=C1O [14.8 mM AsA, L-ascorbic acid]
- Degree of coloring (Abs. at 420 nm), preserved for 40 hrs ([3]; 40 hrs): 0.012
- Degree of coloring (Abs. at 420 nm), preserved for 96 hrs ([3]; 96 hrs): 0.166

Compound: O.O.O.O.O.O.[Cl-].[Cl-].[Sr+2] [Strontium chloride, Strontium chloride hexahydrate]
- Precipitation of crystal, in the absence of α-maltosyl α,α-trehalose ([4]; 0.1 mole metal ion compound only in 30 g water, dissolved by heating, 25° C. for 24 hours, macroscopic observation): Precipitated

Compound: O.O.O.O.[Cl][Mn][Cl] [Manganese chloride, manganese chloride tetrahydrate]
- Solubility in water in the presence of α-maltosyl α,α-trehalose [4]: remarkably improved
